From PubChem BioAssay (NCI)
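Briefly, cells in 96-well plates were exposed to five compound concentrations for 48 h, and endpoints were estimated by linear interpolation. At the GI50, growth is halved. TGI is the concentration that stops growth completely.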

Assays:
Experiment in all cases: DTP human tumour cell line panel, 48 h
[1] = test system: LOX IMVI melanoma
[2] = test system: K-562 leukemia
[3] = test system: NCI-H522 lung
[4] = test system: COLO 205 colon
[5] = test system: IGROV1 ovarian
[6] = test system: T-47D breast
[7] = test system: SF-295 CNS
[8] = test system: HOP-62 NSCLC
[9] = test system: A549 NSCLC
[10] = test system: PC-3 prostate
[11] = test system: UACC-257 melanoma
[12] = test system: SNB-19 CNS
[13] = test system: A498 renal
[14] = test system: NCI-H460 lung
[15] = test system: NCI-H23 lung
[16] = test system: MDA-MB-435
[17] = test system: NCI-H226 lung
[18] = test system: SW-620 colon
[19] = test system: RXF 393 renal
[20] = test system: SF-539 CNS
[21] = test system: HCC-2998 colon
[22] = test system: OVCAR-8 ovarian
[23] = test system: ACHN renal
[24] = test system: HCT-15 colon
[25] = test system: OVCAR-4 ovarian
[26] = test system: MCF7 breast
[27] = test system: TK-10 renal
[28] = test system: EKVX NSCLC
[29] = test system: CAKI-1 renal
[30] = test system: MOLT-4 leukemia
[31] = test system: UO-31 renal
[32] = test system: CCRF-CEM leukemia
[33] = test system: SR leukemia
[34] = test system: RPMI-8226 leukemia
[35] = test system: SN12C renal
[36] = test system: HL-60(TB) leukemia
[37] = test system: OVCAR-3 ovarian
[38] = test system: U251 CNS
[39] = test system: UACC-62 melanoma
[40] = test system: MDA-MB-468 breast
[41] = test system: HS 578T breast
[42] = test system: NCI/ADR-RES ovarian
[43] = test system: KM12 colon
[44] = test system: HCT-116 colon
[45] = test system: MALME-3M melanoma
[46] = test system: BT-549 breast
[47] = test system: M14 melanoma
[48] = test system: SK-MEL-5 melanoma
[49] = test system: OVCAR-5 ovarian
[50] = test system: HOP-92 NSCLC
[51] = test system: DU-145 prostate
[52] = test system: SK-OV-3 ovarian
[53] = test system: SK-MEL-28 melanoma
[54] = test system: HT29 colon
[55] = test system: SK-MEL-2 melanoma
[56] = test system: 786-0 renal
[57] = test system: SF-268 CNS
[58] = test system: SNB-75 CNS
[59] = test system: MDA-MB-231 breast

Work on `N/C(=N\c1nc2ccccc2s1)NC(=O)Nc1ccc(Cl)cc1Cl` yielded a GI50 [1] of 567 nM, a TGI [1] of 1960 nM and a GI50 [2] of 370 nM. The GI50 [3] was 194 nM, the TGI [3] was 787 nM and the GI50 [4] was 491 nM. The TGI [4] was 1780 nM, the GI50 [5] was 558 nM and the TGI [5] was 2350 nM. The GI50 [6] was 421 nM, the TGI [6] was 6420 nM and the GI50 [7] was 334 nM. For the same molecule, the TGI [7] was 1310 nM, the GI50 [8] was 397 nM and the TGI [8] was 1810 nM. It also gave a GI50 [9] of 878 nM, a TGI [9] of 2840 nM and a GI50 [10] of 753 nM. For the same molecule, the TGI [10] was 3890 nM, the GI50 [11] was 2070 nM and the TGI [11] was 17700 nM. It also gave a GI50 [12] of 672 nM, a TGI [12] of 5540 nM and a GI50 [13] of 1640 nM. The TGI [13] was 3730 nM, the GI50 [14] was 419 nM and the TGI [14] was 1510 nM. It also gave a GI50 [15] of 835 nM, a TGI [15] of 2440 nM and a GI50 [16] of 160 nM. For the same molecule, the TGI [16] was 510 nM, the GI50 [17] was 948 nM and the TGI [17] was 2680 nM. For the same molecule, the GI50 [18] was 455 nM, the TGI [18] was 2460 nM and the GI50 [19] was 357 nM. For the same molecule, the TGI [19] was 1690 nM, the GI50 [20] was 261 nM and the TGI [20] was 842 nM. It also gave a GI50 [21] of 978 nM, a TGI [21] of 2860 nM and a GI50 [22] of 766 nM. For the same molecule, the TGI [22] was 4610 nM, the GI50 [23] was 574 nM and the TGI [23] was 2080 nM. For the same molecule, the GI50 [24] was 379 nM, the TGI [24] was 1980 nM and the GI50 [25] was 1530 nM. It also gave a TGI [25] of 5070 nM, a GI50 [26] of 309 nM and a TGI [26] of 1780 nM. For the same molecule, the GI50 [27] was 1910 nM, the TGI [27] was 4280 nM and the GI50 [28] was 489 nM. It also gave a TGI [28] of 2660 nM, a GI50 [29] of 389 nM and a TGI [29] of 2210 nM. For the same molecule, the GI50 [30] was 536 nM, the GI50 [31] was 503 nM and the TGI [31] was 1960 nM. The GI50 [32] was 360 nM, the TGI [32] was 3800 nM and the GI50 [33] was 952 nM. It also gave a GI50 [34] of 1120 nM, a TGI [34] of 8960 nM and a GI50 [35] of 566 nM. It also gave a TGI [35] of 2210 nM, a GI50 [36] of 295 nM and a GI50 [37] of 359 nM. For the same molecule, the TGI [37] was 1340 nM, the GI50 [38] was 458 nM and the TGI [38] was 1750 nM. It also gave a GI50 [39] of 374 nM, a TGI [39] of 3200 nM and a GI50 [40] of 271 nM. The TGI [40] was 788 nM, the GI50 [41] was 289 nM and the TGI [41] was 2430 nM. The GI50 [42] was 269 nM, the TGI [42] was 937 nM and the GI50 [43] was 439 nM. For the same molecule, the TGI [43] was 3600 nM, the GI50 [44] was 384 nM and the TGI [44] was 1510 nM. It also gave a GI50 [45] of 454 nM, a TGI [45] of 2130 nM and a GI50 [46] of 414 nM. The TGI [46] was 5040 nM, the GI50 [47] was 390 nM and the TGI [47] was 1840 nM. It also gave a GI50 [48] of 352 nM, a TGI [48] of 1710 nM and a GI50 [49] of 948 nM. For the same molecule, the TGI [49] was 3090 nM, the GI50 [50] was 923 nM and the TGI [50] was 3910 nM. The GI50 [51] was 1000 nM, the TGI [51] was 3060 nM and the GI50 [52] was 434 nM. It also gave a TGI [52] of 2210 nM, a GI50 [53] of 1040 nM and a TGI [53] of 5670 nM. It also gave a GI50 [54] of 341 nM, a TGI [54] of 1150 nM and a GI50 [55] of 351 nM. The TGI [55] was 1170 nM, the GI50 [56] was 456 nM and the TGI [56] was 1760 nM. The GI50 [57] was 1160 nM, the TGI [57] was 23000 nM and the GI50 [58] was 230 nM. The TGI [58] was 997 nM, the GI50 [59] was 571 nM and the TGI [59] was 2180 nM.
